Measurements as given in patent publication US20230002344A1, “NOVEL BENZOTHIOPHENE DERIVATIVES AND USE THEREOF FOR STIMULATING MITOCHONDRIAL TURNOVER” (NIBN, The National Institute For Biotechnology In The Negev …, priority 2019, published 2023).

Assays:
[1] = tested on: INS1 cells expressing mCherry-GFP; experiment: mCherry-GFP-Fis1101-152 determination of mitophagy; type: cell-based
Source text: To corroborate the increase in mitochondrial clearance, we determined mitophagy by testing the compounds in INS1 cells expressing mCherry-GFP, a mitochondrial probe that emits green and red fluorescence under physiologic pH but red fluorescence only under acidic pH (such as that occurring in autolysosomes) and is therefore used for quantifying mitophagy. Unlike MitoTimer, which captures the accumulating effect of mitochondrial turnover, mCherry-GFP captures mitophagy at the time that it occurs. Since the timing of the induction of mitophagy by the hits was not known, we did a time-lapse. The cells were treated with the hits for 2, 8 and 18 hours. While after 2 hours and 18 hours, the molecules tended to increase the number of mitochondria inside autophagosomes (data not shown), only after 8 hours was this increase significant.
mCherry-GFP-Fis1101-152 determination of mitophagy. INS1 cells were seeded into 4 compartment […]™ glass bottom cell culture dishes at a density of 2*10^4 cells/compartment. After 48 hours cells were transduced with an adenoviral construct encoding the fluorescent mitophagy reporter mCherry-GFP-Fis1101-152 for 24 hours. A media change containing the indicated treatment concentration or 0.1% DMSO as vehicle control was performed 8 hours before the imaging session. Imaging was performed using a 63× Plan Neofluar objective and the Airyscan module of a Zeiss LSM880 confocal microscope. 25 visual fields containing 59-85 cells in total were imaged per condition. The experiment was repeated three times independently. Image analysis was performed with FIJI ImageJ 1.51p and CellProfiler 2.2.0 rev ac0529e. Briefly, individual cells were cropped and background was subtracted using a median filter assisted processing method (Dunn, K. W., Kamocka, M. M. McDonald, J. H. (2011) A practical guide to evaluating colocalization in biological microscopy. Am. J. Physiol. Cell Physiol. 300, C723-C742). Ratios of red/green fluorescence channels were computed and mitophagy positive structures were recognized based on a lower ratio cut-off of 2.5 of red over green. Mitophagy events per cell were determined by the following formula. […]
Data were normalized to DMSO controls to account for day to day variation. […] Significant treatment differences were determined using One-way ANOVA and Tukey post-hoc analysis. […]
The impact of the hits on mitochondrial turnover was further confirmed by a mitophagy-specific assay, a protein with a tandem mCherry-GFP tag attached to the localization signal of the protein FIS at the OMM. […] When mitochondria enter the lysosomes, the GFP fluorescence is quenched, the remaining red fluorescence is seen as red puncta, representing the undergoing mitophagy events.

INS1 cells = experiment: Mitotracker Green pulse-chase (mitochondrial clearance); type: cell-based; conditions: 25 uM, 18 h after MTG pulse
Procedure: FIGS. 8A-E show the effect of two hit compounds on mitophagy confirmed by other methods. […] Cells were imaged using a 63× Plan Neofluar objective and the Airyscan module of a Zeiss LSM880 confocal microscope. […] Data are normalized by DMSO. […] After 18 h, cells were imaged. As control, cells were loaded with MTG 30 min prior imaging—time “0” (100% MTG staining). Cells were imaged using a 40× lens of a Perkin Elmer Operetta high-content imaging system microscope (FIG. 8D). […] Each experiment was repeated three times. For mCherry-GFP-FIS1101-152 assay, 59-85 cells of each group were analyzed in each experiment and for MTG pulse-chase assay, 45 fields were analyzed in each experiment. Values of *p<0.05 vs. DMSO, #p<0.05 vs. “time 0”.
Mitotracker Green Fluorescence, Anion Radical Superoxide and Mitochondrial Membrane Potential. […] Results are expressed as the percentage of MTG fluorescence relative to MTG fluorescence of the “time 0” control. […] Integrated fluorescence of each field was analyzed in Image J after background subtraction and threshold (IsoData) application. Twenty-four fields of each condition were analyzed in each experiment.
A second fluorescence technique, Mitotracker Green (MTG) “pulse-and-chase” (FIG. 8 C-E), was utilized to confirm faster mitochondrial clearance upon treatment with SPB08007 and MWP00839. […]

`CC(=O)N/C(=C\c1sc2ccccc2c1C)C(=O)O` [SPB08007] was tested, and the “time of peak formation of acidic puncta” value ([1]; 25 uM) was 8 h, the “number of acidic puncta (mitophagy events per cell)” value ([1]; 25 uM, 8 h, vs DMSO) was “significantly increased” and the “number of mitophagy events at 18 h” value ([1]; 25 uM, 18 h) was “returned to control levels”. The “number of red fluorescent dots in acidic vesicles (mitophagy)” value ([1]; 8 hours) was “increased” and the “MTG intensity after pulse-chase” value (INS1 cells) was “lower MTG intensity compared to DMSO”.
